Source: patent US7452887B2, “Quinoline- and isoquinoline-based compounds exhibiting ATP-utilizing enzyme inhibitory activity, and compositions, and uses thereof” (Amphora Discovery Corporation, priority 2004, dated 2008)

Tests used:
Experiment in all cases: HTS ATP-utilizing enzyme assay, off-chip mobility-shift (Caliper HTS 250)
Settings in all cases: test compound 10 μM, kinase listed = active (greater than six-sigma from the mean activity of inactive compounds)
LYNA = LYNA (Homo sapiens, UniProt P07948); format: biochemical
LYNA, sequence (P07948 whole entry): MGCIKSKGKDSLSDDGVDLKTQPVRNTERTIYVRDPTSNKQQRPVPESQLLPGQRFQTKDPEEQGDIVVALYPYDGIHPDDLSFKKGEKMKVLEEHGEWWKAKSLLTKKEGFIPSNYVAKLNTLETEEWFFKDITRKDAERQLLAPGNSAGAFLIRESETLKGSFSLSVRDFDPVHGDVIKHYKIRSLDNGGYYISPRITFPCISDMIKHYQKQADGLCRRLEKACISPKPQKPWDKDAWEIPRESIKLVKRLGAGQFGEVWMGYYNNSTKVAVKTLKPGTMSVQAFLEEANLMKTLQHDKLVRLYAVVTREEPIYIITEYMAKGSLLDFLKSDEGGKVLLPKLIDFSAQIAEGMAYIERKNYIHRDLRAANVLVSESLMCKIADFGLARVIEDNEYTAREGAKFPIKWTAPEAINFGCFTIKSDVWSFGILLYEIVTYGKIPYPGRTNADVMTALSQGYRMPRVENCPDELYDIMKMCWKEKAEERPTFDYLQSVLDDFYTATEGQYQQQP
How it was run: (§1)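 The ratio of peptide substrate to phosphorylated product, measured by microfluidic mobility shift, gave percent inhibition. Reactions contained enzyme, peptide substrate and compound at 10 μM in HEPES pH 7.5 buffer, ran 2.5 hrs at 20° C. to 22° C., and were quenched with EDTA.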

SYK = SYK (Homo sapiens, UniProt P43405); format: biochemical
How it was run: as §1

SRC = SRC (Homo sapiens, UniProt P12931); format: biochemical
SRC, sequence (P12931 whole entry): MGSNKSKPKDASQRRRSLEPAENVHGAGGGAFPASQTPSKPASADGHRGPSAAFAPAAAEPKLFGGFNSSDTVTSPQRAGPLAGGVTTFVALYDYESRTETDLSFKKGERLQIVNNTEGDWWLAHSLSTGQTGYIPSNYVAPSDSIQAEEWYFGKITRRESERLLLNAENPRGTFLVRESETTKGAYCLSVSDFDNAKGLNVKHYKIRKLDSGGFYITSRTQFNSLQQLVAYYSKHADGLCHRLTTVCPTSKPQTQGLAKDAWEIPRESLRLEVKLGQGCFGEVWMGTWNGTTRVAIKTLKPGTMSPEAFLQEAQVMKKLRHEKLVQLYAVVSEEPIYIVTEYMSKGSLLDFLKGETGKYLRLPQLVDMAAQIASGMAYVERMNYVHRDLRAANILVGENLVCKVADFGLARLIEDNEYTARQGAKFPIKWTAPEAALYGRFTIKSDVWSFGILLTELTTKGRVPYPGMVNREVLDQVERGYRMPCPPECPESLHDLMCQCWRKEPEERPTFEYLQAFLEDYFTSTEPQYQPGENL
How it was run: as §1

CDK1/cyclin B = CDK1/cyclin B (Homo sapiens, UniProt P06493); format: biochemical
CDK1/cyclin B, sequence (P06493 whole entry): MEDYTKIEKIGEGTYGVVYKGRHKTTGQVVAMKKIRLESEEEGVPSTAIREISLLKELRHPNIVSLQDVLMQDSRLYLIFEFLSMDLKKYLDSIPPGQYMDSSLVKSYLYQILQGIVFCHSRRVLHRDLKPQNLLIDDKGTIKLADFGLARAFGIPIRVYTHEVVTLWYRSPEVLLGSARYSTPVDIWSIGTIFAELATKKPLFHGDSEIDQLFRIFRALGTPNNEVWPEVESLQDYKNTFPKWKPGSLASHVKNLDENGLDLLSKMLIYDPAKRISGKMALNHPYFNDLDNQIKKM
CDK1/cyclin B, sequence (P14635 whole entry partner): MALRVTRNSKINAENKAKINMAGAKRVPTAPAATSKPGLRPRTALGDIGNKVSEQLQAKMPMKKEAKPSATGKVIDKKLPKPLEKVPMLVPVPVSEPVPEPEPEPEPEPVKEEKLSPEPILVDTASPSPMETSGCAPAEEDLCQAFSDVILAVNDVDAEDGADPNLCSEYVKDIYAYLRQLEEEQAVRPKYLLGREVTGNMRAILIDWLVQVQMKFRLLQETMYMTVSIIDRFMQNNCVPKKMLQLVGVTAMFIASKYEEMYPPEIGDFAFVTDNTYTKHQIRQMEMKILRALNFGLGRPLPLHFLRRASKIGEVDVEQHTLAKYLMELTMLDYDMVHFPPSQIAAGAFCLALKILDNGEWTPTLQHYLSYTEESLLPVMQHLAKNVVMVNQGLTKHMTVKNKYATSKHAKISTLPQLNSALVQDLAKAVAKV
How it was run: as §1

ABL1 = ABL1 (Homo sapiens, UniProt P00519); format: biochemical
How it was run: as §1

AKT3 = AKT3 (Homo sapiens, UniProt Q9Y243); format: biochemical
AKT3, sequence (Q9Y243 whole entry): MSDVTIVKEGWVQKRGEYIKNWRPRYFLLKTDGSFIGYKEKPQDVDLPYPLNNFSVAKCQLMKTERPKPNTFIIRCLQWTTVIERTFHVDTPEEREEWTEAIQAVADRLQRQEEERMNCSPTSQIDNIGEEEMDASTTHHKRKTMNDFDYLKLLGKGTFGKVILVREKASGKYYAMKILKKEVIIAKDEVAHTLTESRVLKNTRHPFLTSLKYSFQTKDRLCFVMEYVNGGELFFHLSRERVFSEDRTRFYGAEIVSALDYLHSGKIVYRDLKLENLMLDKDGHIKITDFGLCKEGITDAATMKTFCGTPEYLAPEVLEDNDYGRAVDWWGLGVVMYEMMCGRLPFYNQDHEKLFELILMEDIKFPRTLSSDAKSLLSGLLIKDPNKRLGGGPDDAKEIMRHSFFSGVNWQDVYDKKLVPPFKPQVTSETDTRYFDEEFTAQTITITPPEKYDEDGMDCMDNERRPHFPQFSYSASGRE
How it was run: as §1

LCK = LCK (Homo sapiens, UniProt P06239); format: biochemical
How it was run: as §1

CK2 = format: biochemical, human
Source text: The following procedures describe the reagent and plate preparation for a HTS of an ATP-utilizing enzyme, such as a protein kinase, run in an off-chip mobility-shift assay format. The following provides an HTS protocol for running a protein kinase HTS screen on a Caliper HTS 250 microfluidics system. The following parameters are dependent on the protein kinase used and can be determined by one skilled in the art as part of a typical assay development process. For example, the peptide substrate used can be identified from the current literature, by screening a peptide library of potential protein kinase substrates, or by other applicable means accepted in the field.
The following table provides typical screen assay parameters appropriate for a Caliper HTS 250 microfluidics system.
The reagents and buffers listed in the following table are generally applicable for developing and running an HTS screen on a human protein kinase using the Caliper HTS 250 system.
The following reagents were prepared using the previously described buffers.
A 2× Master Buffer solution was prepared by combining 200 mL of 1 M HEPES, pH 7.5, 2 mL of 10% Triton X-100, 20 mL of 10% BSA, and 778 mL of H2O.
A 2.5× Substrate Buffer solution was prepared by combining 177.408 mL of 2× Master Buffer, 0.887 mL of 1 mM peptide-X, and 176.521 mL of H2O.
A 1.55× Termination Buffer solution was prepared by combining 762.05 mL of 2× Master Buffer, 95.1 mL of 0.5 M EDTA, and 666.94 mL of H2O. […]
Assays to determine the kinase inhibitory activity of compounds of the present disclosure were performed using a Caliper HTS 250 microfluidics device, Greiner U-bottom assay plates, a Multidrop for transfer of reagents, and Biomek FX (AMNCBM03) software. […] The inhibition of the ATP-utilizing enzyme, such as a particular protein kinase, was determined by measuring the ratio of the peptide substrate to phosphorylated product for each well of the assay plate using the Caliper HTS 250 system. […]

GSK-3-β = GSK-3-β (Homo sapiens, UniProt P49841); format: biochemical
GSK-3-β, sequence (P49841 whole entry): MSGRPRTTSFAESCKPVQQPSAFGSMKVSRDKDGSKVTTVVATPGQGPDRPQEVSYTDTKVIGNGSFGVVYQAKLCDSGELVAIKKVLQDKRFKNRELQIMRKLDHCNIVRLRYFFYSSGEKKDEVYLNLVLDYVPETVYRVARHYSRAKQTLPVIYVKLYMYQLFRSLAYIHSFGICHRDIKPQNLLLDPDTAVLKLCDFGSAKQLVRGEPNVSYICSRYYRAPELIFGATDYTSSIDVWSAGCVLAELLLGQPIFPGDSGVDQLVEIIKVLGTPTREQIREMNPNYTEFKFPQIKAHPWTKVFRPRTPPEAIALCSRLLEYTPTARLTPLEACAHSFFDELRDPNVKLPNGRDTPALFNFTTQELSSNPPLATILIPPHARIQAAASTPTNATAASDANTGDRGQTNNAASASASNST
How it was run: as §1

ROCK2 = ROCK2 (Homo sapiens, UniProt O75116); format: biochemical
ROCK2, sequence (O75116 whole entry): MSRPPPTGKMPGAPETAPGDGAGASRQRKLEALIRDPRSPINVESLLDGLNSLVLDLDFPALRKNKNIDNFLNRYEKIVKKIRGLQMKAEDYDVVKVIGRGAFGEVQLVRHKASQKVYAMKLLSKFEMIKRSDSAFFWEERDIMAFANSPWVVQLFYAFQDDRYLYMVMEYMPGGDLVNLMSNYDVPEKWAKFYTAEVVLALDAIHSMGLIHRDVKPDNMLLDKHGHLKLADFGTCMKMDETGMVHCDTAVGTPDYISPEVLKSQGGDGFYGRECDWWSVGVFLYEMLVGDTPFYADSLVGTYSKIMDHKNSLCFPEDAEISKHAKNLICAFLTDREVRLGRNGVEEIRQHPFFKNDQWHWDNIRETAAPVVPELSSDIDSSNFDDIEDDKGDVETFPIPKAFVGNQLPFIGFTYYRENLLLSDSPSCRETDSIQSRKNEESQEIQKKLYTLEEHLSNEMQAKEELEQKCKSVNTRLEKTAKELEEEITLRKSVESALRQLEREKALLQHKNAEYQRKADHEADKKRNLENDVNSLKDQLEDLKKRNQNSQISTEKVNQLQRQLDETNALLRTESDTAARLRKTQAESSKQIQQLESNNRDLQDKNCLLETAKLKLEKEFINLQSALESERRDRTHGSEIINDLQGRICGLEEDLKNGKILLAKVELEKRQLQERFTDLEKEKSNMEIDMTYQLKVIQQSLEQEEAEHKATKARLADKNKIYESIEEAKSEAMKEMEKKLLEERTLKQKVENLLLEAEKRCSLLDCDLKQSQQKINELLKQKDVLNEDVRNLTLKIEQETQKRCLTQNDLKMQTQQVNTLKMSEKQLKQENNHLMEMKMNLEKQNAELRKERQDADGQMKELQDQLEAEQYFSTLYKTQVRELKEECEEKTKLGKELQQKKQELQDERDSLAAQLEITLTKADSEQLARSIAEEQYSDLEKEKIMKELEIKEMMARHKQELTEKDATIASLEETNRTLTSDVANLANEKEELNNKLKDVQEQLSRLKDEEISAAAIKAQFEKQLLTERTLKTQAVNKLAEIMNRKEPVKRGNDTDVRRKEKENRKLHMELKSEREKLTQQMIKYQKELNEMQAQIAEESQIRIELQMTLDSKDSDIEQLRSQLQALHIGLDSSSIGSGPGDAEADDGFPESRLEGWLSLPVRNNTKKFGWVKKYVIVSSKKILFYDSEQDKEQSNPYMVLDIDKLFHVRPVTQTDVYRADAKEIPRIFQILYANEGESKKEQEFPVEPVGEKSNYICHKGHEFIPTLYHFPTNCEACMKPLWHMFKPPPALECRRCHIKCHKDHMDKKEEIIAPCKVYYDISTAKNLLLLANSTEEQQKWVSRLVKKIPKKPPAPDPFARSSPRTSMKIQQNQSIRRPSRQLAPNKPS
How it was run: as §1

PKA = PKA (Homo sapiens, UniProt P17612); format: biochemical
How it was run: as §1

MSK1 = MSK1 (Homo sapiens, UniProt O75582); format: biochemical
MSK1, sequence (O75582 whole entry): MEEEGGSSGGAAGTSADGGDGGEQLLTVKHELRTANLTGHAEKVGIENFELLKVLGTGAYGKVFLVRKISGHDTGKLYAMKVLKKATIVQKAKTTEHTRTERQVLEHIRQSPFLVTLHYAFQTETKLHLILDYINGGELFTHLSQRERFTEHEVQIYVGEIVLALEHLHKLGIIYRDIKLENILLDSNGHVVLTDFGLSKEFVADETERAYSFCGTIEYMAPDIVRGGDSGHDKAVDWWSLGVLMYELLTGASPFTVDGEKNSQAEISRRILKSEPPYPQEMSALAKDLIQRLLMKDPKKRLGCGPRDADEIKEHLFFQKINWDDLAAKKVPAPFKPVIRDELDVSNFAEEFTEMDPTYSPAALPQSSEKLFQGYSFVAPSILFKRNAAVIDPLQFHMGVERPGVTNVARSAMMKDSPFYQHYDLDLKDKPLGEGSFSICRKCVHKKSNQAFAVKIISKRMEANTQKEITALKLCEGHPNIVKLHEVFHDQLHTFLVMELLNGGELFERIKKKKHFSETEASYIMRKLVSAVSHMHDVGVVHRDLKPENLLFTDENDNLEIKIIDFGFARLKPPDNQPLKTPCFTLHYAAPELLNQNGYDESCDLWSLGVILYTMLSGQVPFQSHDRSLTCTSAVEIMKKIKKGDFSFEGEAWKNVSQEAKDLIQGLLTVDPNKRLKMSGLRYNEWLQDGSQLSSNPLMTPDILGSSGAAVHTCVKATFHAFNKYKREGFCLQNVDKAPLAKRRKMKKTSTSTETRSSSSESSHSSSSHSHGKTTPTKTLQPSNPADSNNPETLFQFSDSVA
How it was run: as §1

CDK5 = CDK5 (Homo sapiens, UniProt Q00535); format: biochemical
How it was run: as §1

AKT1 = AKT1 (Homo sapiens, UniProt P31749); format: biochemical
How it was run: as §1

Compound	Activity (LYNA)	Activity (SYK)	Activity (CDK1/cyclin B)	Activity (AKT3)	Activity (ROCK2)	further results
c1ccc(-c2ccc3nccc(Nc4ccc(N5CCNCC5)cc4)c3c2)cc1 [6-phenyl-N-(4-(piperazin-1-yl)phenyl)quinolin-4-amine]	LYNA					
COc1ccc(-c2ccc3nccc(Nc4ccc(N5CCNCC5)cc4)c3c2)cc1 [6-(4-methoxyphenyl)-N-(4-(piperazin-1-yl)phenyl)quinolin-4-amine]			CDK1/cyclin B			
CN1CCN(c2ccc(Nc3ccnc4ccc(-c5ccc(O)cc5)cc34)cc2)CC1 [4-(4-(4-(4-methylpiperazin-1-yl)phenylamino)quinolin-6-yl)phenol]					ROCK2	

Continued, in another order:

Activity (LYNA)	Activity (SYK)	Activity (CDK1/cyclin B)	Activity (AKT3)	Activity (ROCK2)	Compound	further results
LYNA	SYK	CDK1/cyclin B	AKT3		CN1CCN(c2ccc(Nc3ccnc4ccc(-c5cccc6ccccc56)cc34)cc2)CC1 [N-(4-(4-methylpiperazin-1-yl)phenyl)-6-(naphthalen-1-yl)quinolin-4-amine]	Activity (SRC): SRC; Activity (ABL1): ABL1; Activity (LCK): LCK
			AKT3	ROCK2	CN1CCN(c2ccc(Nc3ccnc4ccc(-c5ccncc5)cc34)cc2)CC1 [N-(4-(4-methylpiperazin-1-yl)phenyl)-6-(pyridin-4-yl)quinolin-4-amine]	Activity (CK2): CK2; Activity (GSK-3-β): GSK-3-β; Activity (PKA): PKA; Activity (MSK1): MSK1; Activity (CDK5): CDK5; Activity (AKT1): AKT1
	SYK				CN1CCN(c2ccc(Nc3ccnc4ccc(-c5ccc6ccccc6c5)cc34)cc2)CC1 [N-(4-(4-methylpiperazin-1-yl)phenyl)-6-(naphthalen-2-yl)quinolin-4-amine]	
